Experimental findings from US20070219128A1, “Medical and health-care uses of pufferfish type I collagen extract and processes for producing said extract” (NANJING BESSON PHARMACY CO., LTD, priority 2003, published 2007) are described below.

Test [1] deals with acetic acid-burn induced gastric ulcer in rats. Briefly: Acetic acid-burn induced gastric ulcer in rats. The following applies: 80 mg/kg, ig; mean ± SD. It counts as in vivo. The method, then: 50 SD rats with a body weight of 180 to 200 g and equal numbers of female and male were provided by the Experimental Animal Center of Nanjing Medical University, and the tests were conducted according to the methods in “Collection of Guidelines for Preclinical Studies Of New Drugs (Western Medicines)” edited by China Ministry of Health.

For test [2], the system named is pylorus-ligated Shay rat gastric ulcer. Briefly: Pylorus-ligated Shay rat gastric ulcer. It counts as in vivo, SD rats. The following applies: 80 mg/kg, ig; mean ± SD. The method, then: 50 SD rats with a body weight of 180 to 200 g and equal numbers of female and male were provided by the Experimental Animal Center of Nanjing Medical University, and the tests were conducted according to the methods in “Collection of Guidelines for Preclinical Studies of New Drugs (Western Medicines)” edited by China Ministry of Health.

The test system of test [3] is cysteamine-induced rat duodenal ulcer. In words: Cysteamine-induced rat duodenal ulcer. The following applies: 20 mg/kg. It counts as in vivo, SD rats. The method, then:
50 male SD rats with a body weight of 250 to 300 g were used, and cysteamine was commercially available from Sigma Company. The tests were conducted according to the methods in “Drug Discovery and Evaluation—Pharmacological Assays” (H. G. Vogel, W. H. Vogel. Chinese version, translated by Du Guanhua, published by Science Publishing House).

The test system of test [4] is acetic acid-induced rat colonitis. In words: 10% acetic acid-induced rat ulcerative colonitis. The following applies: 10 mg/kg, mean ± SD. The format is in vivo, SD rats. The protocol: The test was conducted according to the method in the document (Ritzpatrick, R. et al., Agents Actions. 1990, 30:393-402). SD rats were subjected to rectoclysis to form models of colonitis. From the 4th day after the models had been made, the rats were intragastrically administrated for 4 days.

For the next test, the system named is mouse gastric emptying. In words: Mouse gastric emptying (phenol red method). It counts as in vivo, Kunming mice. The following applies: 0.1 mg/kg; mean ± SD. The method, then: 105 Kunming mice with a body weight of from 20 to 25 g and equal numbers of male and female were used. The test was conducted according to the methods in “Collection of Guidelines for Preclinical Studies of New Drugs (Western Medicines)” edited by China Ministry of Health, and the phenol red method (Shi G., et al. Gut, 41:612-618, 1997).

Test [5] relates to TNBS-induced rat colonitis. Briefly: TNBS-induced rat colonitis. The following applies: 0.3 g/kg, intragastric for 7 days; mean ± SD. It counts as in vivo, SD rats. The protocol:
The test was counted according to the method in the document (Morris, C. P. et al: Gastroenterology. 1989, 96:795-803). TNBS was commercially available from Sigma Company. SD rats were subjected to rectoclysis of 100 mg/kg of TNBS to form models of colonitis. Each group included 10 rats. From the 14th day after the models had been made, the rats were intragastrically administrated for 7 days. The rats were killed by drawing their necks and were dissected, and their colon sections were histopathologically observed.

For test [6], the system named is anhydrous ethanol-induced rat gastric mucosa damage. Briefly: Anhydrous ethanol-induced rat gastric mucosa damage. It counts as in vivo, SD rats. The following applies: 100 mg/kg, ig; mean ± SD. The protocol: 60 SD rats with equal numbers of female and male were provided by the Experimental Animal Center of Nanjing Medical University, and the tests were conducted according to the methods in “Collection of Guidelines for Preclinical Studies of New Drugs (Western Medicines)” edited by China Ministry of Health.

In test [7] the test system is PGE2 content in gastric mucosa. In words: PGE2 content in gastric mucosa of rat with indomethacin-induced gastric ulcer (radioimmunoassay). The format is in vivo, SD rats. The following applies: 100 mg/kg; mean ± SD. The protocol:
60 SD rats with a body weight of 180 to 200 g and equal numbers of male and female were used, Indomethacin was commercially available from Sigma Company. The PGE2 content was measured by radioimmunoassay. The tests were conducted according to the methods in “Drug Discovery and Evaluation—Pharmacological Assays” (H. G. Vogel, W. H. Vogel. Chinese version, translated by Du Guanhua, published by Science Publishing House).

For the compound `CN/C(=N/CCSCc1nc[nH]c1C)NC#N` [Cimetidine], the “Ulcer area (mm^2)” value in test [1] is listed as 44.7 ± 38.4 mm^2. For the same compound, the Ulcer index in test [2] was found to be 15.8 ± 1.5.
For the compound `NC(N)=Nc1nc(CSCCC(N)=NS(N)(=O)=O)cs1` [Famotidine], the “Inhibition ratio (%)” value in test [3] was 27.27%. For the same compound, in test [3] (mean ± SD), the Ulcer index is reported as 2.0 ± 1.3. Further, the “Score of ulcer index” value in test [4] (intragastric for 4 days) is given as 4.14 ± 3.76. In addition, the “Ratio of bowel weight to body weight (×10^−2)” value in test [4] is 0.92 ± 0.45 ×10^−2.
`CN(C)C(=O)Oc1ccc[n+](C)c1` [Pyridostigmine bromide]: in the test with mouse gastric emptying, the “Amount of residual phenol red in stomach” value was 0.47 ± 0.36 mg and the “Gastric emptying ratio (%)” value worked out at 93.8 ± 4.8 %.
`O=C(O)c1cc(/N=N/c2ccc(S(=O)(=O)Nc3ccccn3)cc2)ccc1O` [Sulfasalazine]: the “Increment of body weight” value in test [5] turned out to be 68.89 ± 21.64.
Take Bismuth Potassium Citrate: the Ulcer index in test [6] came to 15.0 ± 6.0. In addition, in test [7], the “PGE2 (pg/mg protein)” value turned out to be 170 ± 104 pg/mg protein.
